We go through two molecules from patent US7105492B2, “Camptothecin derivatives having antitumor activity” (priority 1999, dated 2006).

The target of one data set is T1, topoisomerase i (Homo sapiens, UniProt P11387).
T1 sequence (P11387 1-765): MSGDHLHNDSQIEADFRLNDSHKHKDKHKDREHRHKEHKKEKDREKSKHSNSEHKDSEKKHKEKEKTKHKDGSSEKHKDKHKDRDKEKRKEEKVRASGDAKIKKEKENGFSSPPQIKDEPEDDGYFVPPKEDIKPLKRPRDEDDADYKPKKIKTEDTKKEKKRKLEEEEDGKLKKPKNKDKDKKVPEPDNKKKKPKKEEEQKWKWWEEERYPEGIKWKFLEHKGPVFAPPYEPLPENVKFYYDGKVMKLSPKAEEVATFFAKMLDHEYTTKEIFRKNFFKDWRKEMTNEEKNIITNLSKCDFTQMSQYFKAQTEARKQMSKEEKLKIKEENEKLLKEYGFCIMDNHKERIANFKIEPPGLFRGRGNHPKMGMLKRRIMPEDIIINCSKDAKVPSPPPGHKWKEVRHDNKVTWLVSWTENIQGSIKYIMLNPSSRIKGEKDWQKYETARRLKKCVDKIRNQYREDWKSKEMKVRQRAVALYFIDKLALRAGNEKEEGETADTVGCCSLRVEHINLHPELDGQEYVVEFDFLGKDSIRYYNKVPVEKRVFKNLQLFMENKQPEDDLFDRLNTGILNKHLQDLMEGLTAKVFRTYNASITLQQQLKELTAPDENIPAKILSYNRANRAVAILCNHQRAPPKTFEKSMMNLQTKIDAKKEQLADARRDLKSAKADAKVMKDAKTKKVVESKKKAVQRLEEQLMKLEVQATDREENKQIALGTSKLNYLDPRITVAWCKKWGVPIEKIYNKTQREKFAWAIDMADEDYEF
Kind of data set: Persistence of topoisomerase I-mediated DNA cleavage after addition of 0.6 M NaCl. Format: biochemical. As to conditions: for PERSISTENCE (%) of DNA cleavage on selected sites: drug 10 μm, 20 minutes incubation, then sodium chloride (0.6 M), examined after about 10 minutes. On the procedure: An important drawback of conventional camptothecins is the reversibility of the their bond in the ternary complex (drug-DNA-enzyme).
After 20 minutes of incubation of the drug in the reaction mixture containing labelled DNA and the purified enzyme, sodium chloride (0.6 M) was added with the scope of assisting the dissociation of the ternary complex.

The next data set concerns JCA-1 prostate ca. In words: Antitumor activity on tumor models: JCA-1. The note with it: JCA-1, 20 mg/kg. Format: in vivo, mice. The text has this:
(§1) This broad spectrum of anticancer activity was confirmed in mice transplanted with human tumor xenografts, including NSCLC (H460, A549), prostate ca. (JCA-1), glioblastoma (GBM/7), gastric ca. (MKN28), osteosarcoma (U2OS), ovarian ca. (A2780/Dx, A2780/DDP) and colon (HT29, CoBA) carcinomas as well as in murine lung cancer (M109) and leukaemia model (L1210).

The next data set concerns CoBA colon ca. In words: Antitumor activity on tumor models: CoBA. Format: in vivo, mice.
Source text: as §1

In another data set the test system is HT29 colon ca. Kind of data set: Antitumor activity on tumor models: HT29. It is filed as in vivo, mice. As to conditions: HT29, 25 mg/kg.
Source text: as §1

The next data set deals with GBM/7 glioblastoma. Kind of data set: Antitumor activity on tumor models: GBM/7. Format: in vivo, mice.
Source text: as §1

A further data set concerns lung carcinoma NCI H460. In words: Antitumoral activity in nude mice implanted s.c. with NCI H460 tumour fragments (Table 1). The note with it: for Efficacy (TVI %): evaluated 5–10 days after the last treatment.
In the next data set the test system is L1210 = murine leukemia. Kind of data set: Antitumor activity on tumor models: L1210 leukemia, increase in life span. It is filed as in vivo, mice. The note with it: L1210, 25 mg/kg.
Source text: as §1

Another data set deals with H460 = NSCLC. In words: Antitumor activity on tumor models: H460. It is filed as in vivo, mice. The note with it: H460, 25 mg/kg.
Source text: as §1

Description for lung carcinoma NCI H460: For the in vivo studies, the solubilization was carried out in 10% DMSO in bidistilled water, being impossible the solubilization in saline, and the administration for the oral route was carried out at a volume of 10 ml/kg.
Atimic nu/nu Swiss mice (Charles River, Calco, Italia), ageing 10–12 weeks were used. The animals were maintained in laminar flow rooms, according to the guidelines of the United Kingdom Co-ordination Committee Cancer Research. Experimental protocols were approved by the Ethical Committee for animal experimentation of Istituto Nazionale per lo Studio e Cura dei Tumori.
Tumour fragments of about 2×2×2 mm coming from mice to which were inoculated s.c. 10^6 cells NCI H460/topo, were implanted s.c. bilaterally in groups of 5 mice each.
Twice a week, using a Vernier caliper, the width, minimum diameter (l), length and maximum diameter (L) of the tumors were measured, in mm. The tumour volume (mm^3) was calculated according to the formula I^2×L/2. Efficacy of the molecule was evaluated as TVI percent of the treated group versus the control group according to the formula TVI%=100−(T/C×100), wherein T is the mean value of the tumour volume of the treated group and C of control one.

Take `CC[C@@]1(O)C(=O)OCc2c1cc1n(c2=O)Cc2c-1nc1ccccc1c2C=NOCc1ccccc1` [CPT 172, 7-Benzyloxyiminomethylcamptothecin]: on topoisomerase i (after sodium chloride (0.6 M), about 10 minutes), the “Reversibility / persistence of the DNA cleavages (in words)” value was “marked persistence”. Moreover, the “PERSISTENCE (%) of DNA cleavage on selected sites” value on topoisomerase i stood at 80%. Besides, the TVI % was determined as 98% in the data set on JCA-1 prostate ca; 84% with CoBA colon ca (20 mg/kg); 93% in the data set with CoBA colon ca (25 mg/kg); 88% in the data set with HT29 colon ca; 93% in the data set with GBM/7 glioblastoma (GBM/7, 20 mg/kg); 98% with GBM/7 glioblastoma (GBM/7, 25 mg/kg). The molecule also yielded a TVI % with H460 = NSCLC of 97%. Besides, the “no evidence of tumor at the end of the treatment lasting for about 10 days from the last administration” value with GBM/7 glioblastoma (GBM/7, 20 mg/kg) is on record as “(3/11*)”; in the data set with GBM/7 glioblastoma (GBM/7, 25 mg/kg), “(9/12*)”. Moreover, the “Toxicity Body weight loss (%)” value with lung carcinoma NCI H460 (2 mg/kg p.o., qd × 5 × 10w) is listed as 0%; in the data set on lung carcinoma NCI H460 (24 mg/kg p.o., q4d × 4) it was 6%. Besides, the “Toxicity Lethality” value in the data set with lung carcinoma NCI H460 (2 mg/kg p.o., qd × 5 × 10w) is listed as 0/3; with lung carcinoma NCI H460 (24 mg/kg p.o., q4d × 4), 0/4. The “Efficacy (TVI %)” value in the data set with lung carcinoma NCI H460 (2 mg/kg p.o., qd × 5 × 10w) worked out at 90%; with lung carcinoma NCI H460 (8 mg/kg p.o., q4d × 4), 77%; in the data set on lung carcinoma NCI H460 (16 mg/kg p.o., q4d × 4), 88%; with lung carcinoma NCI H460 (24 mg/kg p.o., q4d × 4), 97%. Also, the “ILS % = percent increase in life span” value with L1210 = murine leukemia is recorded as above 400%.

Consider `CC[C@@]1(O)C(=O)OCc2c1cc1n(c2=O)Cc2c-1nc1ccccc1c2C=NO` [CPT 181, 7-hydroxyiminomethylcamptothecin, reference compound], for which the “PERSISTENCE (%) of DNA cleavage on selected sites” value on topoisomerase i came to 28%. In addition, in the data set on lung carcinoma NCI H460 (15 mg/kg p.o., q4d × 4), the “Toxicity Body weight loss (%)” value turned out to be 0%, the “Toxicity Lethality” value is 0/4 and the “Efficacy (TVI %)” value was 40%. In the data set on lung carcinoma NCI H460 (25 mg/kg p.o., q4d × 4), the “Toxicity Body weight loss (%)” value was 0%, the “Toxicity Lethality” value was 0/4 and the “Efficacy (TVI %)” value is recorded as 70%.
